Measured values published in patent US6165984A, “Naringin and naringenin as inhibitors of acyl CoA-cholesterol-o-acyltransferase” (Korea Institute of Science & Technology, priority 1997, dated 2000).

How the values were obtained:
ICR mice = assay: Acute oral toxicity of naringin or naringenin in mice; format: in vivo, mouse; conditions: for toxicity or mitogenicity: tests using mice
Description: 7 to 8 week-old, specific pathogen-free ICR female mice (6 heads) each weighing about 25 to 29 g and male mice (6 heads) each weighing about 34 to 38 g were bred under a condition of temperature 22±1° C., moisture 55±5% and photoperiod 12L/12D. Fodder (Cheiljedang Co., mouse and rat fodder) and water were sterilized and fed to the mice.
Naringin or naringenin was dissolved in 0.5% Tween 80 to a concentration of 100 mg/ml, and the solution was orally administered to the mice in an amount of 0.2 ml per 20 g of mouse body weight. […] The weight changes of the mice were recorded every day to examine the effect of naringin or naringenin. Further, on the 10th day, the mice were sacrificed and the internal organs were visually examined.

[1] = Plasma total cholesterol, HDL-cholesterol and neutral lipid in rats on high-cholesterol diet (Example 4); format: in vivo, Sprague-Dawley rat; conditions: 1% cholesterol diet plus 0.1% compound, six weeks; for HDL-C: control 22.2; for TG (triglyceride): control 99.2 ± 18.9; for Total-C (total plasma cholesterol): control 147.8 ± 34.8
Excerpt: 30 four-week-old Sprague-Dawley rats (Taihan laboratory animal center, Korea) each weighing about 90 to 110 g were evenly divided into three dietary groups by a randomized block design. The rats of the three groups were fed with three different high-cholesterol diets, i.e., AIN-76 laboratory animal diet (ICN Biochemicals, Cleveland, Ohio, U.S.A.) containing 1% cholesterol (Control group), and 1% cholesterol plus 0.1% naringin or naringenin, respectively.
The effect of administering naringin or naringenin to rats on the plasma cholesterol and neutral lipid content was determined as follows.
(§1) Blood samples were taken from the rats of the three dietary groups and plasma HDL fractions were separated therefrom by using HDL-cholesterol reagent (Sigma Chemical Co., Cat. No. 352-3) containing dextran-sulfate. Total cholesterol and HDL-cholesterol levels were determined by using Sigma Diagnostic Kit Cat. No. 352-100(Sigma Chemical Co., U.S.A.) (Allain et al., Clin. Chem., 20, 470-475(1974)). Neutral lipid level was determined by using Sigma Diagnostic Kit Cat. No. 339-50(Bucolo, G. and David, H., Clin. Chem., 19, 476-482(1973)). The result is shown in Table III, wherein the total plasma cholesterol levels in naringin and naringenin-fed rat groups decreased by 32% and 18%, respectively, as compared with that of the control group.

[2] = system: macrophage-lipid complex on the arterial endothelium; assay: Fatty streak analysis: macrophage-lipid complex on main artery of cholesterol-fed rabbits (Example 6); format: in vivo, New Zealand White rabbit; conditions: for inhibition of accumulation of macrophage-lipid complex on the arterial endothelium (conclusion): 0.1% in 1% cholesterol diet; for area of macrophage-lipid complex accumulated on the arterial endothelium, compared to control group / M-L (macrophage-lipid) complex area: 1% cholesterol diet, 6 weeks, 0.1% naringin or naringenin; for M-L (macrophage-lipid) complex area: proportion of total arterial area, control 35
Excerpt: RC4 diet comprises 7.6% moisture, 22.8% crude protein, 2.8% crude fat, 8.8% crude ash, 14.4% crude cellulose and 43.6% soluble nitrogen-free substances. The rabbits were bred for 6 weeks while being allowed free access to the diets and water. The rabbits bred in (Step 1) were sacrificed and their chest were incised. The main artery was cut out therefrom in a length of about 5 cm downward from the site 1 cm above the aortic valve and the fat surrounding the main artery was removed. The main artery was incised in the middle along the longitudinal axis and pinned to a dish. The moist artery was photographed and, then, staining of fatty streak was carried out in accordance with the method of […]., et al. (J. Lab. Clin. […] A part of the incised main artery was washed three times by 2 min. with anhydrous propylene glycol and stained for 30 min. with a saturated solution of Oil Red O (ORO, Sigma Co.) dissolved in propylene glycol. Thereafter, the artery was washed twice by 3 min. with 85% propylene glycol to remove remaining staining solution and, then washed with physical saline. The artery was photographed and the photograph was traced. The area of stained region (fatty streak region) was determined with an image analyzer (LEICA, Q-600, Germany) and its proportion (%) to the total arterial area was calculated. On the other hand, the other part of the main artery was stained in accordance with hematoxylin-eosin (H&E) and Masson's trichrome staining methods and observed under a microscope to confirm whether the macrophage-lipid complexes were accumulated in the intima, internus, elastic lamina and media.

[3] = Blood total cholesterol and triglyceride in cholesterol-fed rabbits (Example 6); format: in vivo, New Zealand White rabbit; conditions: 1% cholesterol diet, 6 weeks, 1 mg/kg Lovastatin, 0.1% naringin or naringenin; for Triglyceride: control 56; for Total cholesterol: control 1143
Description: as §1, with “U.S.A.) (Allain” left out, “group. […] RC4 diet comprises 7.6% moisture, 22.8% crude protein, 2.8% crude fat, 8.8% crude ash, 14.4% crude cellulose and 43.6% soluble nitrogen-free substances. The rabbits were bred for 6 weeks while being allowed free access to the diets and water. Further, blood samples were taken from the rabbits and total cholesterol and triglyceride levels were determined in accordance with the same procedure in Example 4.” for “group.”

liver function = conditions: in vivo
[4] = literature; cited from earlier work
[5] = single oral dose, 1,000 mg/kg, mice

Row | Compound | survival at day 10 (ICR mice; [5]) | weight loss (ICR mice; single oral dose, 1,000 mg/kg, mice, 10 day test period) | toxicity (ICR mice; single oral dose, 1,000 mg/kg, mice, 10 days) | pathological abnormality at autopsy (ICR mice; single oral dose, 1,000 mg/kg, mice, day 10) | toxicity or mitogenicity (ICR mice) | decrease of total plasma cholesterol level compared with control group [1] [%] | HDL-C [1] [mg/dL] | TG (triglyceride) [1] [mg/dL] | Total-C (total plasma cholesterol) [1] [mg/dL] | inhibition of accumulation of macrophage-lipid complex on the arterial endothelium (conclusion) [2] | area of macrophage-lipid complex accumulated on the arterial endothelium, compared to control group ([2]; 1 mg/kg Lovastatin) | M-L (macrophage-lipid) complex area ([2]; 1 mg/kg Lovastatin) [%] | Triglyceride [3] [mg/dL] | Total cholesterol [3] [mg/dL] | adverse effects on the liver function (liver function) | reported activities [4] | corresponding oral administration dose for a person weighing 50 kg (ICR mice; mouse, in vivo) | layer of macrophage-lipid complex on the arterial endothelium (FIGS. 1A-1C) ([2]; 1 mg/kg Lovastatin, 0.1% naringin, control: thick layer)
1 | O=C1C[C@@H](c2ccc(O)cc2)Oc2cc(O)cc(O)c21 [naringenin] | All the mice were alive | no weight loss | no toxicity | did not develop any pathological abnormality | little toxicity or mitogenicity | 18 | 23.4 | 103.4 ± 18.2 | 120.9 ± 25.9 | strongly inhibit | decreased significantly | 13 | 70 | 1350 | no adverse effects on the liver function | anti-cancer, anti-viral and cholesterol lowering activities |  | 
2 | C[C@@H]1O[C@@H](O[C@H]2[C@H](Oc3cc(O)c4c(c3)O[C@H](c3ccc(O)cc3)CC4=O)O[C@H](CO)[C@@H](O)[C@@H]2O)[C@H](O)[C@H](O)[C@H]1O [naringin, Naringin] | All the mice were alive |  |  |  | little toxicity or mitogenicity | 32 | 24.0 | 86.7 ± 14.6 | 100.8 ± 16.1 | strongly inhibit | decreased significantly | 12 | 72 | 1367 | no adverse effects on the liver function | anti-cancer, anti-viral and cholesterol lowering activities | 50-100 g/kg body weight | no or very thin layers of macrophage-lipid complex
